Article PMC7979765, “trans-Translation inhibitors bind to a novel site on the ribosome and clear Neisseria gonorrhoeae in vivo” (Nature Communications, 2021)
≈ marks a conversion by molar mass, not a printed value. Where “and” joins values, the source holds several entries; their conditions need not be identical. Equal values may be shown once.

Tests used:
Neisseria gonorrhoeae = assay: MIC, microbroth dilution, G77L medium; assay type: cell-based; settings: Neisseria gonorrhoeae ATCC 49226; source data, individual replicates
HeLa cells [1] = assay: Mammalian cell cytotoxicity (CC50); assay type: cell-based, human; settings: one value per replicate
[2] = Aqueous solubility (nephelometric); assay type: physicochemical; settings: for Solubility: single replicates
HeLa cells [3] = assay: Mammalian cell cytotoxicity (CC50); assay type: cell-based, human; settings: HeLa, replicates
Protocol: The half maximal cytotoxic concentration (CC50) of each compound against HeLa cells (ATCC CCL-2) was measured as previously described. […] The mean values for each biological replicate were averaged, and the CC50 was determined using a 4-parameter nonlinear curve fitting algorithm (GraphPad Prism). The average of the CC50s from two biological replicates was calculated and reported.

[4] = Liver microsome stability, murine; assay type: in vitro ADME, mouse; settings: murine liver microsomes; for Average MLMS t½: average of replicates; for MLMS t½: individual replicates
How it was run: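 Compounds incubated with liver microsomes plus NADPH over 30 min; parent remaining quantified by reverse-phase LC/MS. Half-life from linear regression over several time points.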

trans-translation = assay: microbe, parasite or virus in culture; assay type: cell-based, Escherichia coli; settings: Eco Luc reporter, one value per replicate; read-out: IC50
Protocol: To verify that MBX-4132 retains activity as an inhibitor of trans-translation, we measured its dose-dependent activity against the non-stop luciferase reporter assay strain E. coli SB75 ΔtolC::kan (pluc-trpAt) essentially as described, with modifications. Briefly, serial 1.5-fold dilutions of MBX-4132 in DMSO were transferred to 96-well assay plates (Costar 3195), followed by the addition of 50 µl of an overnight culture of SB75 ΔtolC::kan (pluc-trpAt) that had been diluted to a final OD600 of 0.4 with LB media supplemented with 100 µg ampicillin/ml and 1 mM IPTG. […] The assay plates were incubated at room temperature for 2 h, and 50 µl of BrightGlo (Promega) bioluminescence reagent was added to each well. After 10 min incubation, bioluminescence intensity was measured using an Envision multi-label plate reader (Perkin Elmer). Each assay comprised three technical replicates, and the experiment was repeated three times. The fold induction for each MBX-4132 treated sample as compared to the DMSO-only sample was calculated for each technical replicate, and the average and standard deviation of the three technical was calculated. The IC50 was determined using a 4-parameter nonlinear curve fitting algorithm (GraphPad Prism).

Escherichia coli = assay: microbe, parasite or virus in culture; assay type: cell-based; settings: E. coli KLE701 (ΔtolC::tet); source data, individual replicates

SMILES	MIC (Neisseria gonorrhoeae)	CC50 (HeLa cells [1])	Average solubility [2]	Solubility [2]	NORMALIZED DATA (Fraction DMSO Control) (HeLa cells [3]; [CMPD] 0.78125 µM)	NORMALIZED DATA (Fraction DMSO Control) (HeLa cells [3]; [CMPD] 1.5625 µM)	NORMALIZED DATA (Fraction DMSO Control) (HeLa cells [3]; [CMPD] 3.125 µM)	NORMALIZED DATA (Fraction DMSO Control) (HeLa cells [3]; [CMPD] 6.25 µM)	NORMALIZED DATA (Fraction DMSO Control) (HeLa cells [3]; [CMPD] 12.5 µM)	NORMALIZED DATA (Fraction DMSO Control) (HeLa cells [3]; [CMPD] 25 µM)	NORMALIZED DATA (Fraction DMSO Control) (HeLa cells [3]; [CMPD] 50 µM)	NORMALIZED DATA (Fraction DMSO Control) (HeLa cells [3]; [CMPD] 100 µM)	Average MLMS t½ [4]	MLMS t½ [4]	IC50 (trans-translation)	MIC (Escherichia coli)
Fc1ccc(-c2nnc(NCc3ccc(Cl)cc3)o2)cc1 [MBX-3776]	>=30.372 µg/ml	≥ 100 µM	25 µM	25 µM (≈ 7.59 µg/mL)	0.9425 Fraction DMSO Control and 0.9291 Fraction DMSO Control and 1.002 Fraction DMSO Control and 0.9674 Fraction DMSO Control and 0.9349 Fraction DMSO Control and 0.9583 Fraction DMSO Control	0.9887 Fraction DMSO Control and 1.033 Fraction DMSO Control and 1.0461 Fraction DMSO Control and 0.981 Fraction DMSO Control and 0.9949 Fraction DMSO Control and 1.019 Fraction DMSO Control	0.9887 Fraction DMSO Control and 0.9933 Fraction DMSO Control and 1.016 Fraction DMSO Control and 0.9805 Fraction DMSO Control and 0.9905 Fraction DMSO Control and 1.024 Fraction DMSO Control	0.964 Fraction DMSO Control and 0.9895 Fraction DMSO Control and 1.009 Fraction DMSO Control and 1.011 Fraction DMSO Control and 0.9848 Fraction DMSO Control and 0.9995 Fraction DMSO Control	0.9916 Fraction DMSO Control and 1.003 Fraction DMSO Control and 0.985 Fraction DMSO Control and 0.9785 Fraction DMSO Control and 0.9711 Fraction DMSO Control and 0.9946 Fraction DMSO Control	0.8342 Fraction DMSO Control and 0.8793 Fraction DMSO Control and 0.8796 Fraction DMSO Control and 0.8381 Fraction DMSO Control and 0.8221 Fraction DMSO Control and 0.8915 Fraction DMSO Control	0.8682 Fraction DMSO Control and 0.9316 Fraction DMSO Control and 0.8851 Fraction DMSO Control and 0.8718 Fraction DMSO Control and 0.8862 Fraction DMSO Control and 0.9022 Fraction DMSO Control	0.8662 Fraction DMSO Control and 0.9027 Fraction DMSO Control and 0.8885 Fraction DMSO Control and 0.8759 Fraction DMSO Control and 0.8519 Fraction DMSO Control and 0.9047 Fraction DMSO Control	5.3 min	4.3 min and 6.3 min	≥ 25 µM	>=30.372 µg/ml
O=C(Nc1nnc(-c2ccc(F)cc2)o1)N1CCCCCC1 [MBX-4700]	0.951 µg/mL and 0.4755 µg/mL	≥ 100 µM	25 µM	25 µM (≈ 7.61 µg/mL)	1.19 Fraction DMSO Control and 0.9349 Fraction DMSO Control and 0.9879 Fraction DMSO Control	1.113 Fraction DMSO Control and 0.9447 Fraction DMSO Control and 0.9899 Fraction DMSO Control	1.151 Fraction DMSO Control and 1.008 Fraction DMSO Control and 1.078 Fraction DMSO Control	0.9458 Fraction DMSO Control and 0.9081 Fraction DMSO Control and 0.9843 Fraction DMSO Control	0.7537 Fraction DMSO Control and 0.7467 Fraction DMSO Control and 0.8509 Fraction DMSO Control	0.8669 Fraction DMSO Control and 0.6852 Fraction DMSO Control and 0.8634 Fraction DMSO Control	0.8891 Fraction DMSO Control and 0.7812 Fraction DMSO Control and 0.7745 Fraction DMSO Control	0.8207 Fraction DMSO Control and 0.7165 Fraction DMSO Control and 0.6953 Fraction DMSO Control	19 min	16.8 min and 21.8 min		3.804 µg/mL and 7.608 µg/mL
